These results are taken from US10385030B2, “Cationic lipid” (NOF CORPORATION, priority 2015, dated 2019).

Series [1] in a line: Particle size and surface potential of MENDs by dynamic light scattering (Experimental Example 6). Format: physicochemical. As to the method:
Various MENDs were prepared by the ethanol dilution method in [Experimental Example 1] (2), and DOPC was used as a phospholipid. PEG5000-DSG was used as a PEG lipid, and an amount corresponding to 5 mol % of the total lipid was added in Myr-C3M MEND, and an amount corresponding to 10 mol % was added in TS-PZ4C2 MEND.
pDNA solution (1 mg/mL), 100 mM malic acid buffer (pH 4.0), 5 M aqueous sodium chloride solution and sterilized water were mixed, and a solution having a final concentration of 0.1 mg/mL, 20 mM, 40 mM, respectively, was prepared and used as a DNA solution.
A lipid solution in ethanol was prepared by mixing 5 mM cationic lipid (L-PZ4C2, O-PZ4C2), 10 mM cholesterol (Chol), and 10 mM DOPC at desired ratios to achieve 840 nmol total lipid in a 5 mL tube, further adding PEG5000-DSG (1 mM ethanol solution) in an amount corresponding to 5 mol % of the total lipid, and adding ethanol to achieve a total amount of 200 μL (80% ethanol solution) and 20 mM malic acid buffer (pH 4.0). While stirring the lipid solution in a vortex mixer, the above-mentioned DNA solution (200 μL) was quickly added, after which 20 mM malic acid buffer (pH 4.0) (1600 μL) was added, phosphate buffered saline was added, and the mixture was diluted to an ethanol concentration of 8%. Similar operation was repeated three times and phosphate buffered saline was added to an ethanol concentration of 4%. Thereafter, using Amicon Ultra 15 (Millipore), the mixture was concentrated to about 200 μL by ultrafiltration under centrifugation condition (room temperature, 2267 rpm, 30 min). Thereafter, the mixture was diluted with phosphate buffered saline to 15 mL, and concentrated again by centrifugation (2267 rpm, for 30 min) under room temperature conditions. Finally, it was diluted to a desired lipid concentration with phosphate buffered saline.
The particle size and the surface potential were measured by the dynamic light scattering method (Zetasizer Nano).

The test system of the next series is 4T1 tumor. Description: Gene expression activity (gene delivery into tumor) in vivo (Experimental Example 8). More on the design: species or system BALB/c mice. To be noted: MEND encapsulating pDNA, tail vein, 25 mg DNA, 48 hr; FIG. 6. Here is the method:
Various MENDs were prepared according to the method described in [Experimental Example 6]. Cancer-carrying mice were produced by subcutaneous administration of a suspension of mouse breast cancer-derived cancer cell line 4T1 cells (1×10^6 cells/mouse) to 6-week-old female BALB/c mice. At 7 days after the subcutaneous transplantation of the cancer cells, the prepared MEND solutions were administered each in an amount corresponding to […] from the tail vein. The mice were euthanized by a cervical spine […] method at 48 hr after the administration, the tumor was isolated and frozen with liquid nitrogen. The tumor was lysed in a Lysis buffer to prepare homogenate. The homogenate was centrifuged at 13,000 rpm, 10 min, 4° C., and the supernatant was collected and used as a measurement sample. The sample solution (20 μL) was mixed with a luciferase substrate (50 μL), and the luciferase activity was measured using Luminescenser-PSN (AB2200 ATTO). In addition, the concentration of the protein in the sample was quantified using a BCA protein assay kit, and the gene expression activity was measured as RLU/mg protein.

Series [2] can be described thus: Particle size and surface potential of MENDs by dynamic light scattering (Experimental Example 1). It is filed as physicochemical. As to the method: A solution of pDNA encoding luciferase gene and a protamine (manufactured by CALBIOCHEM) solution were diluted with 10 mM HEPES buffer to 0.15 mg/mL and 96.3 μg/mL, respectively. While stirring 0.15 mg/mL pDNA solution (100 μL), 96.3 μg/mL protamine (100 μL) was added dropwise in small portions to prepare an electrostatic complex of protamine and pDNA (N/P ratio=1.0) as a core of the vector.
A lipid solution in ethanol was prepared by mixing 5 mM cationic lipid (Myr-C3M), 5 mM phospholipid (SOPC) and 5 mM cholesterol (Chol) at desired ratios to achieve 330 nmol total lipid in an Eppendorf tube, further adding PEG2000-DSG (1 mM ethanol solution) in an amount corresponding to 3 mol % of the total lipid, and adding ethanol to achieve a total volume of 200 μL. While stirring the lipid solution in a vortex mixer, 200 μL of the nucleic acid electrostatic complex (10 mM HEPES; pH 5.3) prepared in [Experimental Example 1] (1) was quickly added, and thereafter 10 mM HEPES buffer (1.6 mL, adjusted to pH 5.3) was added. Furthermore, 10 mM HEPES buffer (2 mL) adjusted to pH 5.3 was added to dilute the mixture to an ethanol concentration of 5%. The mixture was concentrated to about 50 μL by ultrafiltration using Amicon Ultra 4 (Millipore) under centrifugation conditions (room temperature, 1000 g, 15 min). Thereafter, it was diluted to 4 mL with 100 mM HEPES buffer (adjusted to pH 7.4), and again concentrated by centrifugation (1000 g, 15 min) under room temperature conditions. Thereafter, it was diluted to 4 mL with 10 mM HEPES buffer (pH 7.4), and again concentrated by centrifugation (1000 g, 15 min) under room temperature conditions. Finally, it was diluted with 10 mM HEPES buffer (pH 7.4) to a desired lipid concentration.
pDNA solution (1 mg/mL), 100 mM malic acid buffer (pH 4.0), 5 M aqueous sodium chloride solution and sterilized water were mixed, and a solution having final concentrations of 0.1 mg/mL, 20 mM, 40 mM, respectively, was prepared and used as a DNA solution.
A lipid solution in ethanol was prepared by mixing 5 mM cationic lipid (TS-PZ4C2 or TS-C3M), and 10 mM cholesterol (Chol) at desired ratios to achieve 600 nmol total lipid in a 5 mL tube, further adding PEG2000-DMG (5 mM ethanol solution) in an amount corresponding to 3 mol % of the total lipid, and adding ethanol to achieve a total volume of 200 μL. While stirring the lipid solution in a vortex mixer, the above-mentioned DNA solution (300 μL) was quickly added, after which 20 mM malic acid buffer (pH 4.0, containing 100 mM sodium chloride) (500 μL) was added, and phosphate buffered saline was added to dilute the mixture to the ethanol concentration of 10%. Similar operation was repeated three times and phosphate buffered saline was added to an ethanol concentration of 5%. Thereafter, the mixture was concentrated to about 200 μL by ultrafiltration using Amicon Ultra 15 (Millipore, under centrifugation conditions (room temperature, 2267 rpm, 20 min). Thereafter, it was diluted to 15 ml with phosphate buffered saline, and again concentrated by centrifugation (2267 rpm, 20 min) under conditions of room temperature. Finally, it was diluted with phosphate buffered saline to a desired lipid concentration.
The particle size and the surface potential were measured by the dynamic light scattering method (Zetasizer Nano; Malvern Instruments Ltd.).

For series [3] the following is noted: compared to DOTAP, DODAP; known from patent document 1; cited from earlier work.
[4] abbreviates: MEND of L-PZ4C2, cationic lipid:DOPC:Chol = 6:1:3, PEG5000-DSG 5 mol %.
[5] abbreviates: MEND of Myr-C3M, cationic lipid:SOPC:Chol = 3:4:3, PEG2000-DSG 3 mol %.
The mark [6] stands for this setting: MEND of Myr-C3M, cationic lipid:DOPC:Chol = 3:4:3, PEG5000-DSG 5 mol %.
Where [7] appears, read: MEND of O-PZ4C2, cationic lipid:DOPC:Chol = 6:1:3, PEG5000-DSG 5 mol %.
The mark [8] stands for this setting: MEND of TS-C3M, cationic lipid:Chol = 7:3, PEG2000-DMG 3 mol %.
Setting [9] is: MEND of TS-PZ4C2, cationic lipid:Chol = 7:3, PEG2000-DMG 3 mol %.
[10] abbreviates: MEND of TS-PZ4C2, cationic lipid:Chol = 7:3, PEG5000-DSG 10 mol %.

Entries after “also recorded” stand apart in the source; their conditions may differ.

In series [1] (setting [4]), `CCCCC/C=C\C/C=C\CCCCCCCC(=O)OCCN1CCN(CCSSCCN2CCN(CCOC(=O)CCCCCCC/C=C\C/C=C\CCCCC)CC2)CC1` [L-PZ4C2] showed a PdI of 0.094, a particle size of 108.7 nm and a zeta potential of 0.144 mV. For the same molecule, in the series with 4T1 tumor, the “gene delivery expression activity to tumor (luciferase activity, RLU/mg protein)” value is listed as “higher gene delivery expression activity to tumor than the lipid membrane structures using the cationic lipids of Comparative Example 1”.

Turning to `CCCCCCCCCCCCCC(=O)OCCCN(C)CCSSCCN(C)CCCOC(=O)CCCCCCCCCCCCC` [Myr-C3M], in series [2] (setting [5]), the PdI turned out to be 0.188, the particle size stood at 128.3 nm and the zeta potential is listed as 1.88 mV. In series [1] (setting [6]), the PdI is 0.134, the particle size came to 113.9 nm and the zeta potential is −0.135 mV. The “nucleic acid delivery efficiency” value in series [3] is “high nucleic acid delivery efficiency as compared to cationic lipids such as DOTAP, DODAP; also recorded: higher nucleic acid delivery efficiency as compared to conventional cationic lipids such as DOTAP, DODAP”.

Turning to `CCCCCCCC/C=C\CCCCCCCC(=O)OCCN1CCN(CCSSCCN2CCN(CCOC(=O)CCCCCCC/C=C\CCCCCCCC)CC2)CC1` [O-PZ4C2], in series [1] (setting [7]), the PdI was found to be 0.083, the particle size stood at 115.2 nm and the zeta potential is given as −0.294 mV. For the same molecule, the “gene delivery expression activity to tumor (luciferase activity, RLU/mg protein)” value with 4T1 tumor is on record as “higher gene delivery expression activity to tumor than the lipid membrane structures using the cationic lipids of Comparative Example 1”.

With `Cc1c(C)c2c(c(C)c1OC(=O)CCC(=O)OCCCN(C)CCSSCCN(C)CCCOC(=O)CCC(=O)Oc1c(C)c(C)c3c(c1C)CCC(C)(CCCC(C)CCCC(C)CCCC(C)C)O3)CCC(C)(CCCC(C)CCCC(C)CCCC(C)C)O2` (stereo not shown) [TS-C3M], in series [2] (setting [8]), the PdI was 0.08, the particle size is 141.3 nm and the zeta potential is recorded as −5.4 mV. Besides, the “nucleic acid delivery efficiency” value in series [3] is given as “high nucleic acid delivery efficiency as compared to cationic lipids such as DOTAP, DODAP”.

In series [2] (setting [9]), `Cc1c(C)c2c(c(C)c1OC(=O)CCC(=O)OCCN1CCN(CCSSCCN3CCN(CCOC(=O)CCC(=O)Oc4c(C)c(C)c5c(c4C)CCC(C)(CCCC(C)CCCC(C)CCCC(C)C)O5)CC3)CC1)CCC(C)(CCCC(C)CCCC(C)CCCC(C)C)O2` (stereo not shown) [TS-PZ4C2] returned a PdI of 0.041, a particle size of 126.8 nm and a zeta potential of −7.38 mV. Further, in series [1] (setting [10]), the PdI was found to be 0.121, the particle size stood at 104.8 nm and the zeta potential is −0.897 mV.
